Experimental findings from patent US6608086B2, “Dihydropyridines and new uses thereof” (Synaptic Pharmaceutical Corporation, priority 1993, dated 2003) are described below.

For assay [1], the target named is T1, α1C Human Adrenergic Receptor (Homo sapiens, UniProt P35348).
T1 construct: The entire coding region of α1C (1401 bp); expressed in transfected cells
T1 sequence (P35348 1-466): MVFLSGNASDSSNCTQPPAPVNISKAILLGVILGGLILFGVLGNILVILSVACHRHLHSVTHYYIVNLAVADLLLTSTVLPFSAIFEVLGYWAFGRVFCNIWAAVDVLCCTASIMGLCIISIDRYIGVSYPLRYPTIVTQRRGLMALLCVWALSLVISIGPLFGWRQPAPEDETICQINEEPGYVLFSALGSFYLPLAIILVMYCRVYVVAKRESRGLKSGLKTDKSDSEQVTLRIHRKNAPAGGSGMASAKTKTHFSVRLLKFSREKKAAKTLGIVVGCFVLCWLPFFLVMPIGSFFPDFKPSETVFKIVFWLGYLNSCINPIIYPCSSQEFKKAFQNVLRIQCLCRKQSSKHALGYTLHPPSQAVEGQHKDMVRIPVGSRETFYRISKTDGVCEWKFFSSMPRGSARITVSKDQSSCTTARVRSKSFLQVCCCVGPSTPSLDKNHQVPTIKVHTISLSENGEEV
The assay can be described thus: Radioligand binding, [3H]prazosin, cloned human α1C adrenergic receptor. As to conditions: for pKi: pKi alpha-1 1c; for Ki: read-out: pKi alpha-1 1c (converted). The method, boiled down: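 LM(tk−) membranes (stable human α1C); [3H]prazosin 0.5 nM; 37° C., 20 min; Tris-HCl 50 mM/MgCl2 1 mM/ascorbate 0.1%, pH 7.5; NSB 10 μM phentolamine; GF/B filtration.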

The target in assay [2] is T2, α1B Human Adrenergic Receptor (Homo sapiens, UniProt P35368).
T2 construct: The entire coding region of α1B (1563 bp); expressed in transfected cells
T2 sequence (P35368 1-520): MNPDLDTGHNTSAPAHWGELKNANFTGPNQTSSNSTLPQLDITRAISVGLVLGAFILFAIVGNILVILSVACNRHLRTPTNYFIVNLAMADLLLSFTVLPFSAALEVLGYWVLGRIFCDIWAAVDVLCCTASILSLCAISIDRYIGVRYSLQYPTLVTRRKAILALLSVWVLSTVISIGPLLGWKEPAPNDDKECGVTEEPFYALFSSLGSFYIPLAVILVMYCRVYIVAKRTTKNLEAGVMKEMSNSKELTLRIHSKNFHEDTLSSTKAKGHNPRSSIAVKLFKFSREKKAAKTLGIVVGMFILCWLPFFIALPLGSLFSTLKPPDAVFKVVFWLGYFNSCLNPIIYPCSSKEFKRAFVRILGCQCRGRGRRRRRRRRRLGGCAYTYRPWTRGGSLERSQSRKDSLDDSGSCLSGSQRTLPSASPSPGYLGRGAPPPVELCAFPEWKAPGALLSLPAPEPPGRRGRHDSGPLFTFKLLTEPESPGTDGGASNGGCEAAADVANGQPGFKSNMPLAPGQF
The assay is described as follows: Radioligand binding, [3H]prazosin, cloned human α1B adrenergic receptor. Particulars: for pKi: pKi alpha-1 1b; for Ki: read-out: pKi alpha-1 1b (converted). The procedure, abridged:
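Membranes from stably transfected LM(tk−) cells, resuspended in 50 mM Tris-HCl, 1 mM MgCl2, 0.1% ascorbic acid, pH 7.5, were incubated with 0.5 nM [3H]prazosin for 20 min at 37° C. Nonspecific binding defined with 10 μM phentolamine; bound ligand separated by GF/B filtration.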

The next assay concerns the target T3, α2B receptor (Homo sapiens, UniProt P18089).
T3 construct: host or cells: LM(tk-) cells, line L-NGC-α2B
T3 sequence (P18089 1-450): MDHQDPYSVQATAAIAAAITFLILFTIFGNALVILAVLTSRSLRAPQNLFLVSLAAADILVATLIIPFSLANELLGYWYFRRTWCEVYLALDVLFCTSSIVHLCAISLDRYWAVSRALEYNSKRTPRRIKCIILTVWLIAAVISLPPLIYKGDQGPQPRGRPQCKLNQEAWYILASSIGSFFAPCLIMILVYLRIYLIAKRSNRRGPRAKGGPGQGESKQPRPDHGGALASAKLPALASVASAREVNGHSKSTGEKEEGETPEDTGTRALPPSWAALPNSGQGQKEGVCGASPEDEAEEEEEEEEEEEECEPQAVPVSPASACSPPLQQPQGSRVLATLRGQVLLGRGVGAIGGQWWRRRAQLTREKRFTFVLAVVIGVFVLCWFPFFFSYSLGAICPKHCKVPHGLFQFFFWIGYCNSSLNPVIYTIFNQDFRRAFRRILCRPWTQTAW
The assay is described as follows: Competition binding, [3H]rauwolscine, human α2B receptor. Particulars: pKi alpha-2 2b. The procedure, abridged:
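Filter-bound [3H]rauwolscine (0.5 nM) was measured after equilibrium competition with test antagonists on lysates of LM(tk−) cells stably transfected with each human α2 subtype. Buffer: 25 mM glycylglycine, pH 7.6 at room temperature; 10 μM phentolamine gave nonspecific binding.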

The mark [3] stands for this setting: cloned human α1C receptor, LM(tk−) cell membranes.
Where [4] appears, read: cloned human α1B receptor, LM(tk−) cell membranes.
[5] abbreviates: [3H]rauwolscine, human α2B receptor, LM(tk−) cells.
Where [6] appears, read: cloned human receptor in LM(tk-) cell membranes, SEM and n in lines below.
[7] abbreviates: [3H]rauwolscine, LM(tk-) cell line L-NGC-α2B, SEM and n in lines below.

pKi: −log10 of the molar value. Counter-ions that a name gives are not always drawn. Like-named read-outs stand apart in the source and are kept apart here.

With `CCC1=C(C(N)=O)C(c2ccc([N+](=O)[O-])cc2)C(C(=O)NCCCN2CCC(C#N)(c3ccccc3)CC2)=C(CC)N1` (racemic) [(±)-102, 5-Carboxamido-3-{N-[(4-cyano-4-phenylpiperidin-1-ly)propyl]carboxamido-2,6-diethyl-1,4-dihydro-4-(4-nitrophenyl)pyridine hydrochloride hydrate], the pKi in assay [1] (setting [3]) is 8.42; in assay [2] (setting [4]), 5.79; on α2B receptor (setting [5]), 5.99.
As to `CCC1=C(C(N)=O)C(c2ccc([N+](=O)[O-])cc2)C(C(=O)NCCCN2CCC(C#N)(c3ccccc3)CC2)=C(CC)N1` (single isomer, unassigned; (+)) [(+)-102], the pKi in assay [1] (setting [3]) is 8.58; in assay [2] (setting [4]), 5.91; at α2B receptor (setting [5]), 5.72.
Take `CCC1=C(C(N)=O)C(c2ccc([N+](=O)[O-])cc2)C(C(=O)NCCCN2CCC(C#N)(c3ccccc3)CC2)=C(CC)N1` (single isomer, unassigned; (-)) [(−)-102]: the values for the pKi (in assay [1] (setting [3]); in assay [2] (setting [4]); on α2B receptor (setting [5])) were 6.95, 5.50 and 6.23, respectively.
Regarding `COC(=O)C1=C(C)NC(C)=C(C(=O)NCCCN2CCC(c3ccccc3)(c3ccccc3)CC2)C1c1ccc(C(F)(F)F)cc1` (stereo not drawn) [Example 1], the Ki was 30.2 nM in assay [1] (setting [6]) and 407 nM in assay [2] (setting [6]). The compound further had a pKi on α2B receptor of 5.48.
Consider `CCC1=C(C(=O)NCCCN2CCC(c3ccccc3)(c3ccccc3)CC2)C(c2ccc([N+](=O)[O-])cc2)C(C(=O)OCc2ccccc2)=C(C)N1` (stereo not drawn) [Example 4, 5-Benzyloxycarbonyl-2-ethyl-1,4-dihydro-6-methyl-4-(4-nitrophenyl)-3-(N-(3-(4,4-diphenylpiperidin-1-yl)propyl)carboxamido) pyridine, Hydrochloride Salt, Hydrate], for which the pKi in assay [1] (setting [6]) was 7.17; in assay [2] (setting [6]), 6.89; on α2B receptor (setting [7]) it was 5.99.
`COC(=O)C1=C(C)NC(C)=C(C(=O)NCCCN2CCC(c3ccccc3)(c3ccccc3)CC2)C1c1ccncc1` (stereo not drawn) [Example 5, 1,4-Dihydro-5-methoxycarbonyl-2,6-dimethyl-3-(N-(3-(4,4-diphenylpiperidin-1-yl)propyl)carboxamido)-4-(4-pyridyl)pyridine]: the Ki in assay [1] (setting [6]) is 11.2 nM; in assay [2] (setting [6]) it was 832 nM. This compound gave a pKi at α2B receptor of 5.67.
Regarding `COC(=O)C1=C(C)NC(C)=C(C(=O)NCCCN2CCC(c3ccccc3)(c3ccccc3)CC2)C1C1CCCCC1` (stereo not drawn) [Example 6], the Ki in assay [1] (setting [6]) is 148 nM; in assay [2] (setting [6]), 204 nM. On α2B receptor, this compound had a pKi of 6.35.
Regarding `COC(=O)C1=C(C)NC(C)=C(C(=O)NCCCN2CCC(c3ccccc3)(c3ccccc3)CC2)C1c1ccc(-c2ccccc2)cc1` (stereo not drawn) [Example 7], the Ki in assay [1] (setting [6]) was 617 nM; in assay [2] (setting [6]) it was 288 nM. Moreover, the pKi on α2B receptor was 5.79.
In the case of `COC(=O)C1=C(C)NC(C)=C(C(=O)NCCCN2CCC(c3ccccc3)(c3ccccc3)CC2)C1Cc1ccccc1` (stereo not drawn) [Example 8, 4-Benzyl-1,4-dihydro-3-methoxycarbonyl-2,6-dimethyl-5-(N-(3-(4,4-diphenylpiperidin-1-yl)propyl)carboxamido)pyridine], the pKi was 7.12 in assay [1] (setting [6]), 6.73 in assay [2] (setting [6]) and 5.73 on α2B receptor (setting [7]).
In the same order, the values of `COC(=O)C1=C(C)NC(C)=C(C(=O)NCCCN2CCC(c3ccccc3)(c3ccccc3)CC2)C1c1cc[n+]([O-])cc1` (stereo not drawn) [Example 9, 1,4-Dihydro-3-methoxycarbonyl-2,6-Dimethyl-4-(1-oxido-4-pyridyl)-5-(N-(3-(4,4-diphenylpiperidin-1-yl)propyl)carboxamido)pyridine] are 7.62, 6.47 and 6.26.
For `COC(=O)C1=C(C)NC(C)=C(C(=O)NCCCN2CCC(c3ccccc3)(c3ccccc3)CC2)C1c1ccc(Cl)cc1` (stereo not drawn) [Example 10, 4-(4-Chlorophenyl)-1,4-dihydro-5-methoxycarbonyl-2,6-Dimethyl-5-(N-(3-(4,4-diphenylpiperidin-1-yl)propyl)carboxamido)pyridine], the Ki in assay [1] (setting [6]) was 1.78 nM; in assay [2] (setting [6]), 123 nM. Besides, the pKi at α2B receptor was 5.48.
In the same order, the values of `COC(=O)C1=C(C)NC(C)=C(C(=O)NCCCN2CCC(c3ccccc3)(c3ccccc3)CC2)C1c1ccc2c(c1)OCO2` (stereo not drawn) [Example 11, 1,4-Dihydro-3-methoxycarbonyl-2,6-dimethyl-4-(3,4-methylenedioxyphenyl)-5-(N-(3-(4,4-diphenylpiperidin-1-yl)propyl)carboxamido)pyridine] are 1.12 nM, 229 nM and 6.06.
Taken in the same sequence, the figures for `COC(=O)C1=C(C)NC(C)=C(C(=O)NCCCN2CCC(c3ccccc3)(c3ccccc3)CC2)C1c1ccc(C#N)cc1` (stereo not drawn) [Example 12, 4-(4-Cyanophenyl)-1,4-dihydro-3-methoxycarbonyl-2,6-dimethyl-5-(N-(3-(4,4-diphenylpiperidin-1-yl)propyl)carboxamido)pyridine] were 1.82 nM, 151 nM and 5.90.
In the same order, the values of `COC(=O)C1=C(C)NC(C)=C(C(=O)NCCCN2CCC(c3ccccc3)(c3ccccc3)CC2)C1c1ccc(I)cc1` (stereo not drawn) [Example 13, 1,4-Dihydro-4-(4-iodophenyl)-3-methoxycarbonyl-2,6-dimethyl-5-(N-(3-(4,4-diphenylpiperidin-1-yl)propyl)carboxamido)pyridine] are 7.24 nM, 166 nM and 5.76.
Regarding `COC(=O)C1=C(C)NC(C)=C(C(=O)NCCCN2CCC(c3ccccc3)(c3ccccc3)CC2)C1c1cccnc1` (stereo not drawn) [Example 14, 1,4-Dihydro-3-methoxycarbonyl-2.6-dimethyl-5-(N-(3-(4,4-diphenylpiperidin-1-yl)propyl)carboxamido)-4-(3-pyridyl)pyridine], the pKi was 7.39 in assay [1] (setting [6]), 5.58 in assay [2] (setting [6]) and 5.87 on α2B receptor (setting [7]).
Take `COC(=O)C1=C(C)NC(C)=C(C(=O)NCCCN2CCC(c3ccccc3)(c3ccccc3)CC2)C1c1ccc(Br)cc1` (stereo not drawn) [Example 15, 4-(4-Bromophenyl)-1,4-dihydro-3-methoxycarbonyl-2,6-dimethyl-5-(N-(3-(4,4-diphenylpiperidin-1-yl)propyl)carboxamido)pyridine]: the figures for the Ki in assay [1] (setting [6]) and in assay [2] (setting [6]) were 6.31 nM and 166 nM, respectively. Besides, the pKi at α2B receptor was 5.47.
